Data from PubChem BioAssay AID200 (DTP/NCI, 2004).
“And” between values parts separate entries of the source, which are not always exact repeats. Equal values may be shown once. Toxic doses and inconclusive results are not listed. Where a SMILES comes first, the peptide text is derived from it.

System: B6C3F1 mice, B16 melanoma ip, median survival T/C
Assay: NCI In Vivo Anticancer Drug Screen. Data for tumor model B16 Melanoma (intraperitoneal) in B6C3F1 mice
Conditions: endpoint: median survival time, higher = longer survival
In short: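 Transplantable tumor in mice; treated vs vehicle control groups; survival or tumor size measured; value = T/C ratio.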

[1] = dose: 25.0 mg/kg/injection, schedule: Q01DX009 (ip), vehicle: Klucel (hydroxypropylcellulose) (HPC)

CC(=O)OC1C(O)C(C)OC(OC2C(OC(=O)C3CCC4C(C3)OC3(CC(OC(=O)/C=C/c5ccccc5)C(C)CO3)C43CO3)OC(C)C(O)C2OC(C)=O)C1O (stereo not drawn)
T/C (dose: 0.38 mg/kg/injection, schedule: Q03HX024 (ip), vehicle: other): 111 % of control | T/C (dose: 0.75 mg/kg/injection, schedule: Q03HX024 (ip), vehicle: other): 120 % of control | T/C (dose: 0.9 mg/kg/injection, schedule: Q01DX005 (iv), vehicle: other): 111 % of control | T/C (dose: 1.0 mg/kg/injection, schedule: Q01DX009 (ip), vehicle: distilled water + alcohol): 122 % of control | T/C (dose: 1.0 mg/kg/injection, schedule: Q01DX009 (ip), vehicle: other): 120 % of control and 122 % of control | T/C (dose: 1.0 mg/kg/injection, schedule: Q01DX009 (ip), vehicle: saline + Tween-80 + alcohol): 116 % of control | T/C (dose: 1.0 mg/kg/injection, schedule: Q01DX009 (ip), vehicle: saline + alcohol): 110 % of control and 115 % of control | T/C (dose: 1.13 mg/kg/injection, schedule: Q03HX008 (ip), vehicle: other): 123 % of control | T/C (dose: 1.8 mg/kg/injection, schedule: Q01DX005 (iv), vehicle: other): 103 % of control | T/C (dose: 2.0 mg/kg/injection, schedule: Q01DX009 (ip), vehicle: distilled water + alcohol): 158 % of control | T/C (dose: 2.0 mg/kg/injection, schedule: Q01DX009 (ip), vehicle: other): 152 % of control | T/C (dose: 2.0 mg/kg/injection, schedule: Q01DX009 (ip), vehicle: saline + Tween-80 + alcohol): 157 % of control | T/C (dose: 2.25 mg/kg/injection, schedule: Q01DX001 (iv), vehicle: other): 114 % of control | T/C (dose: 2.25 mg/kg/injection, schedule: Q03HX008 (ip), vehicle: other): 119 % of control | T/C (dose: 3.0 mg/kg/injection, schedule: Q04DX003 (ip), vehicle: other): 122 % of control | T/C (dose: 3.6 mg/kg/injection, schedule: Q01DX005 (iv), vehicle: other): 107 % of control | T/C (dose: 4.0 mg/kg/injection, schedule: Q01DX009 (ip), vehicle: distilled water + alcohol): 184 % of control | T/C (dose: 4.0 mg/kg/injection, schedule: Q01DX009 (ip), vehicle: other): 175 % of control | T/C (dose: 4.0 mg/kg/injection, schedule: Q01DX009 (ip), vehicle: saline + Tween-80 + alcohol): 185 % of control | T/C (dose: 4.0 mg/kg/injection, schedule: Q01DX009 (ip), vehicle: saline): 163 % of control | T/C (dose: 4.0 mg/kg/injection, schedule: Q01DX009 (oral), vehicle: other): 102 % of control | T/C (dose: 4.0 mg/kg/injection, schedule: Q01DX009 (sc), vehicle: other): 108 % of control | T/C (dose: 4.5 mg/kg/injection, schedule: Q01DX001 (ip), vehicle: other): 117 % of control | T/C (dose: 4.5 mg/kg/injection, schedule: Q01DX001 (iv), vehicle: other): 105 % of control | T/C (dose: 7.2 mg/kg/injection, schedule: Q01DX005 (iv), vehicle: other): 119 % of control | T/C (dose: 8.0 mg/kg/injection, schedule: Q01DX009 (ip), vehicle: distilled water + alcohol): 176 % of control | T/C (dose: 8.0 mg/kg/injection, schedule: Q01DX009 (ip), vehicle: other): 158 % of control and 174 % of control | T/C (dose: 8.0 mg/kg/injection, schedule: Q01DX009 (ip), vehicle: saline + Tween-80 + alcohol): 182 % of control | T/C (dose: 8.0 mg/kg/injection, schedule: Q01DX009 (ip), vehicle: saline): 161 % of control | T/C (dose: 8.0 mg/kg/injection, schedule: Q01DX009 (oral), vehicle: other): 104 % of control | T/C (dose: 8.0 mg/kg/injection, schedule: Q01DX009 (sc), vehicle: other): 106 % of control | T/C (dose: 8.0 mg/kg/injection, schedule: Q02DX005 (ip), vehicle: saline + Tween-80 + alcohol): 158 % of control | T/C (dose: 9.0 mg/kg/injection, schedule: Q01DX001 (ip), vehicle: other): 114 % of control | T/C (dose: 9.0 mg/kg/injection, schedule: Q01DX001 (iv), vehicle: other): 111 % of control | T/C (dose: 12.0 mg/kg/injection, schedule: Q04DX003 (ip), vehicle: saline + alcohol): 124 % of control | T/C (dose: 14.4 mg/kg/injection, schedule: Q01DX005 (ip), vehicle: other): 160 % of control | T/C (dose: 14.4 mg/kg/injection, schedule: Q01DX005 (iv), vehicle: other): 113 % of control | T/C (dose: 16.0 mg/kg/injection, schedule: Q01DX009 (ip), vehicle: distilled water + alcohol): 150 % of control | T/C (dose: 16.0 mg/kg/injection, schedule: Q01DX009 (ip), vehicle: other): 177 % of control and 188 % of control | T/C (dose: 16.0 mg/kg/injection, schedule: Q01DX009 (ip), vehicle: saline + Tween-80 + alcohol): 179 % of control | T/C (dose: 16.0 mg/kg/injection, schedule: Q01DX009 (oral), vehicle: other): 102 % of control | T/C (dose: 16.0 mg/kg/injection, schedule: Q01DX009 (sc), vehicle: other): 114 % of control | T/C (dose: 16.0 mg/kg/injection, schedule: Q02DX005 (ip), vehicle: saline + Tween-80 + alcohol): 166 % of control | T/C (dose: 16.0 mg/kg/injection, schedule: Q02DX005 (ip), vehicle: saline + alcohol): 155 % of control | T/C (dose: 18.0 mg/kg/injection, schedule: Q01DX001 (ip), vehicle: other): 120 % of control | T/C (dose: 18.0 mg/kg/injection, schedule: Q01DX001 (iv), vehicle: other): 117 % of control | T/C (dose: 32.0 mg/kg/injection, schedule: Q01DX009 (oral), vehicle: other): 101 % of control | T/C (dose: 32.0 mg/kg/injection, schedule: Q01DX009 (sc), vehicle: other): 112 % of control | T/C (dose: 32.0 mg/kg/injection, schedule: Q02DX005 (ip), vehicle: saline + alcohol): 154 % of control | T/C (dose: 36.0 mg/kg/injection, schedule: Q01DX001 (ip), vehicle: other): 119 % of control | T/C (dose: 96.0 mg/kg/injection, schedule: Q04DX003 (ip), vehicle: saline + Tween-80 + alcohol): 94 % of control

Cn1cc(C2NC(=O)c3ccccc3N2)c2ccccc21 (stereo not drawn)
T/C [1]: 109 % of control and 96 % of control | T/C (dose: 50.0 mg/kg/injection, schedule: Q01DX009 (ip), vehicle: Klucel (hydroxypropylcellulose) (HPC)): 115 % of control and 106 % of control | T/C (dose: 100.0 mg/kg/injection, schedule: Q01DX009 (ip), vehicle: Klucel (hydroxypropylcellulose) (HPC)): 123 % of control

O=C1c2ccccc2C(=O)c2c(NCCNCCO)ccc(O)c21
T/C (dose: 2.5 mg/kg/injection, schedule: Q01DX009 (ip), vehicle: suspension in saline): 118 % of control | T/C (dose: 20.0 mg/kg/injection, schedule: Q01DX009 (ip), vehicle: suspension in saline): 153 % of control | T/C (dose: 40.0 mg/kg/injection, schedule: Q01DX009 (ip), vehicle: suspension in saline): 184 % of control | T/C (dose: 80.0 mg/kg/injection, schedule: Q01DX009 (ip), vehicle: suspension in saline): 190 % of control

O=C1C=C(Nc2ccc(O)cc2)c2ccccc2C1=O
T/C (dose: 5.0 mg/kg/injection, schedule: Q01DX009 (ip), vehicle: saline): 102 % of control | T/C (dose: 10.0 mg/kg/injection, schedule: Q01DX009 (ip), vehicle: saline): 98 % of control | T/C (dose: 20.0 mg/kg/injection, schedule: Q01DX009 (ip), vehicle: saline): 93 % of control

S=c1nc[nH]c2nc[nH]c12
T/C (dose: 6.25 mg/kg/injection, schedule: Q01DX009 (ip), vehicle: Klucel (hydroxypropylcellulose) (HPC)): 100 % of control | T/C (dose: 7.5 mg/kg/injection, schedule: Q01DX009 (ip), vehicle: Klucel (hydroxypropylcellulose) (HPC)): 97 % of control | T/C (dose: 12.5 mg/kg/injection, schedule: Q01DX009 (ip), vehicle: Klucel (hydroxypropylcellulose) (HPC)): 94 % of control | T/C [1]: 96 % of control

COc1cc([NH-])c([NH-])cc1OC.[Cl][Pt+2][Cl]
T/C (dose: 20.0 mg/kg/injection, schedule: Q01DX009 (ip), vehicle: saline with Tween-80): 100 % of control | T/C (dose: 40.0 mg/kg/injection, schedule: Q01DX009 (ip), vehicle: saline with Tween-80): 101 % of control | T/C (dose: 80.0 mg/kg/injection, schedule: Q01DX009 (ip), vehicle: saline with Tween-80): 112 % of control

O=C(O)CNC(=O)CNC(=O)C(Cc1cnc[nH]1)NC(=O)OCc1ccccc1 (stereo not drawn) (HELM PEPTIDE1{[O=C(OCc1ccccc1)[*:2]].[O=C(C(Cc1c[nH]cn1)N[*:1])[*:2]].G.G}$$$$V2.0)
T/C (dose: 100.0 mg/kg/injection, schedule: Q01DX009 (ip), vehicle: saline with Tween-80): 89 % of control | T/C (dose: 200.0 mg/kg/injection, schedule: Q01DX009 (ip), vehicle: saline with Tween-80): 91 % of control | T/C (dose: 400.0 mg/kg/injection, schedule: Q01DX009 (ip), vehicle: saline with Tween-80): 97 % of control

Nc1nc(-c2ccccc2)c(Br)c(=O)[nH]1
T/C (dose: 50.0 mg/kg/injection, schedule: Q01DX009 (ip), vehicle: saline with Tween-80): 156 % of control and 183 % of control | T/C (dose: 800.0 mg/kg/injection, schedule: Q01DX009 (ip), vehicle: saline with Tween-80): 116 % of control
